We go through one substance from US20160040128A1, “METHOD” (PCI BIOTECH AS, priority 2013, published 2016).

Data set [1] deals with DCs. As to the kind of experiment: Activation of DCs: surface marker expression by flow cytometry. The format is cell-based, mouse. How it is done:
(§1) The cells were then washed and cultured in Amphinex- and OVA-free medium for another 2 hours before being treated with Lumisource® light for 3 minutes. The DCs were then cultured overnight before collection of supernatants for analysis of the cytokines TNF-α (a), IL-6 (b), IL-12 (c) and IL-1β (d). To measure the expression of CD80 by flow cytometry, DCs were cultured with 0, 0.1 or 1 μg/ml Amphinex and 0 or 10 μg/ml OVA as indicated (e). The histograms are representative of triplicates and show cells that were gated on viable and CD11c-positive cells. Arrows indicate samples that were treated with light for 3 min.
(§2) The DC viability was tested 2 hours after the PCI treatment by staining the cells with propidium iodide and Annexin-V to identify necrotic and apoptotic cells, respectively, which were analysed by flow cytometry (FACSCanto from BD Biosciences, San Jose, USA). The analysis was performed using the FlowJo 8.5.2 software from Tree Star, Inc. (Ashland, Oreg.). Activation of DCs was further tested by measuring the secretion of TNF-α, IL-6, IL-12 and IL-1β by ELISA (eBioscience) and the expression of MHC I, MHC II, CD40, CD80, CD83 and CD86 by flow cytometry. Briefly, the DCs were incubated for 2 hours with Amphinex or lipopolysaccharide E. coli clone 026:B6 (Sigma Aldrich), washed, incubated for another 2 hours in fresh medium, illuminated for 3 min with Lumisource® light, and incubated. Cytokines were analysed by ELISA from supernatants of 24 hours cultures, and flow cytometry was done on cells after 48 hours incubation. All FACS antibodies were purchased from BD Pharmingen (Basel, Switzerland) or from eBioscience.
DC constitutively expressed the co-stimulatory molecules CD80 and CD86 (FIG. 3e; CD80 only shown). […] The expression of CD40, MHC I and MHC II was not affected by Amphinex treatment (not shown).
Background: In flow cytometry, cells or beads pass a laser one at a time.

Data set [2] relates to DCs. As to the kind of experiment: Activation of DCs: cytokine secretion (TNF-α, IL-6, IL-12, IL-1β) by ELISA. Type of data set: cell-based, mouse. The method, then: as §1, §2
We further tested the activation of DCs and their innate immune reactions after PCI treatment. Adjuvants and especially pathogen-associated molecular patterns (PAMPs) typically activate DCs and other antigen presenting cells via stimulation of pathogen recognition receptors such as Toll-like receptors, NOD-like receptors, C-type lectin and mannose receptors. Such activation then is typically characterised by secretion cytokines important for stimulation and regulation of further innate as well as adoptive immune responses. […] Although weak, the adjuvant effect with regard to IL-6 seemed light dependent, as IL-6 secretion was not increased by Amphinex or light alone, but only by their combination. However, the effect was much weaker than after stimulation of DCs with 1 μg/ml lipopolysaccharide (LPS). While stimulation of TNF-α and IL-6 secretion characterises the general adjuvant potential of a compound or a treatment, stimulation of IL-12 and IL-1β illustrates the potential to trigger Th1 T-cell responses and inflammasome, respectively.
(In an ELISA, binding on a coated surface is turned into a signal by an enzyme label.)

Data set [3] deals with Bone-marrow derived murine DCs. Nature of the data set: PCI-induced apoptosis and cell death of DCs, Annexin-V / propidium iodide flow cytometry. The note with it: 0.2 μg/ml Amphinex, 435 nm light 1 to 10 minutes, 2 hours rest at 37° C. Type of data set: cell-based. The method, then:
The DCs were then washed and seeded into culture plates and treated with light for various time periods (minutes) as indicated. The cells were cultured for another 2 hours (or overnight) and the viability was analysed by flow cytometry after staining with Annexin-V and propidium iodide (PI). The results are illustrated as representative dotbiots (a) or summarised in histograms (b).
The DC viability was tested 2 hours after the PCI treatment by staining the cells with propidium iodide and Annexin-V to identify necrotic and apoptotic cells, respectively, which were analysed by flow cytometry (FACSCanto from BD Biosciences, San Jose, USA). The analysis was performed using the FlowJo 8.5.2 software from Tree Star, Inc. (Ashland, Oreg.). […] Cytokines were analysed by ELISA from supernatants of 24 hours cultures, and flow cytometry was done on cells after 48 hours incubation. […]
Therefore in a series of experiments, we analysed cell death and apoptosis by flow cytometry after staining of cells with propidium iodide and fluorescence-labelled anti-Annexin-V. A concentration of 0.2 μg/ml Amphinex induced light-dose dependent apoptosis and cell death upon illumination with 435 nm light for 1 to 10 minutes (FIG. 2a); the DCs were rested at 37° C. for 2 hours after light treatment before staining and acquisition. […]

The subject of data set [4] is bone-marrow-derived murine DCs. Nature of the data set: In vitro MHC class-I antigen presentation: OVA-pulsed, Amphinex- and light-treated DCs co-cultured with OT-1 CD8 T cells, IFN-γ ELISA. Type of data set: cell-based, mouse. The method, then: The DCs were washed and illuminated for the indicated time intervals before adding 100,000 purified CD8 T cells from OT-1 mice. […] After washing, the DCs were illuminated for 15 seconds.
The antigen OVA (Sigma Aldrich, Buchs, Switzerland) and the photosensitiser Amphinex (TPCS2a, PCI Biotech, Lysaker, Norway) were incubated with DCs using petri dishes. Typically, DCs were pulsed for 2 h with OVA and Amphinex. The DCs were then collected and washed by centrifugation before re-suspension in medium and further incubation on petri dishes for 2 h in Amphinex- and OVA-free medium; this allows removal of Amphinex from the outer plasma membrane. The DCs were then washed, counted and plated in round-bottom 96-well plates (typically 100,000 DCs per well), and the cells were exposed to light (435 nm) using LumiSource® (PCI Biotech) for different time intervals. Sex-matched CD8-purified OT-1 cells were then added to the DC plates at 100,000 cells per well and incubated at 37° C. overnight. The secretion of IFN-γ into supernatants was measured using ELISA according to the protocol from eBioscience (Ready-SET-Go!®, Bender MedSystems, Vienna, Austria).
After removing the photosensitiser and antigen by washing and incubation for another 2 hours, the DCs were transferred to 96-well plates at 100,000 cells per well and treated with light at different time-doses before admixing an equal number of purified OT-1 CD8 T cells. […] Of note, antigen presentation and IFN-γ secretion of soluble OVA was improved by Amphinex alone, but not by light alone (FIG. 1a). To further test the sensitivity of DCs to PCI treatment, equivalent assays were performed using a single light dose of 15 seconds, but a wide range of Amphinex doses (0.0005-0.5 μg/ml), namely 0.003, 0.006, 0.0125, 0.025, 0.05, 0.1 and 0.2 μg/ml.

Where [5] appears, read: PCI treatment: 1 μg/ml Amphinex plus 3 min light.
Where [6] appears, read: PCI treatment: 1 μg/ml Amphinex plus 3 min light, measured after 22 hours incubation.

Turning to “Disulfonated tetraphenyl chlorin [Amphinex]”, in the data set on DCs [1] (Amphinex treatment), the CD40 expression result is “not affected”, the “MHC I expression” value is given as “not affected” and the “MHC II expression” value was “not affected”. Moreover, in the data set on DCs [1] (Amphinex-treated DCs also treated with light 3 min, with or without OVA, gated on viable CD11c-positive cells), the CD80 expression result is on record as “down-regulation”. In the data set with DCs [2] (Amphinex alone, without light), the IL-6 secretion entry was “not increased”. Also, the “cytokine-stimulating (adjuvant) effect compared with 1 μg/ml lipopolysaccharide (LPS)” value with DCs [2] (PCI treatment (Amphinex plus light) vs 1 μg/ml LPS) was “much weaker”. Further, in the data set on DCs [2] (setting [5]), the IL-1β secretion entry is recorded as “neither were notably stimulated” and the IL-12 secretion entry is “neither were notably stimulated”. Besides, in the data set with DCs [2] (setting [6]), the IL-6 secretion result is “weak stimulation” and the TNF-α secretion entry is on record as “weak stimulation”. In addition, in data set [3], the “amount of cells dying” value is 50-60% and the apoptotic cells entry is recorded as “approx. 20%”. Moreover, in data set [4] (0.05 vs 0.2 μg/ml Amphinex), the “immune responses (IFN-γ secretion), 0.05 μg/ml compared with 0.2 μg/ml Amphinex” value is “stronger immune responses”. Moreover, in data set [4] (Amphinex 0.025 and 0.05 μg/ml, light 15 seconds), the “antigen presentation (IFN-γ secretion by OT-1 CD8 T cells)” value is given as “facilitated antigen presentation”. In data set [4] (Amphinex alone, without light), the “antigen presentation and IFN-γ secretion of soluble OVA” value is given as “improved”. In addition, the antigen presentation result in data set [4] (Amphinex combined with high light doses) is given as “clear detrimental effect”. Moreover, the “IFN-γ secretion by OT-1 CD8 T cells” value in data set [4] (Amphinex doses higher than 0.05 μg/ml, light 15 seconds) is recorded as “declined”. For the same substance, the “MHC-1 antigen presentation as measured by IFN-γ secretion” value in data set [4] (DCs pulsed 2 h with OVA with 0.05 or 0.2 μg/ml Amphinex vs OVA only, IFN-γ after 24 hours) is “significantly increased”.
